Results: patent publication US20240116985A1, “STAPLED PEPTIDES AND METHODS THEREOF” (priority 2020, published 2024)
Values after ≈ are worked out from the molar mass of the structure shown.

Assays:
CHI Log D procedure = type: physicochemical; settings: pH 7.4, CHI Log D
[1] = target: T1, full-length beta-Catenin (Uniprot ID P35222) (Homo sapiens, UniProt P35222); assay: Fluorescence polarization IC50 (beta-catenin / 5FAM-TCF4 10-53 competition); type: binding; settings: read-out: beta-Catenin FP IC50
T1 construct: 10 nM full-length beta-Catenin (Uniprot ID P35222)
T1 sequence (P35222 1-781): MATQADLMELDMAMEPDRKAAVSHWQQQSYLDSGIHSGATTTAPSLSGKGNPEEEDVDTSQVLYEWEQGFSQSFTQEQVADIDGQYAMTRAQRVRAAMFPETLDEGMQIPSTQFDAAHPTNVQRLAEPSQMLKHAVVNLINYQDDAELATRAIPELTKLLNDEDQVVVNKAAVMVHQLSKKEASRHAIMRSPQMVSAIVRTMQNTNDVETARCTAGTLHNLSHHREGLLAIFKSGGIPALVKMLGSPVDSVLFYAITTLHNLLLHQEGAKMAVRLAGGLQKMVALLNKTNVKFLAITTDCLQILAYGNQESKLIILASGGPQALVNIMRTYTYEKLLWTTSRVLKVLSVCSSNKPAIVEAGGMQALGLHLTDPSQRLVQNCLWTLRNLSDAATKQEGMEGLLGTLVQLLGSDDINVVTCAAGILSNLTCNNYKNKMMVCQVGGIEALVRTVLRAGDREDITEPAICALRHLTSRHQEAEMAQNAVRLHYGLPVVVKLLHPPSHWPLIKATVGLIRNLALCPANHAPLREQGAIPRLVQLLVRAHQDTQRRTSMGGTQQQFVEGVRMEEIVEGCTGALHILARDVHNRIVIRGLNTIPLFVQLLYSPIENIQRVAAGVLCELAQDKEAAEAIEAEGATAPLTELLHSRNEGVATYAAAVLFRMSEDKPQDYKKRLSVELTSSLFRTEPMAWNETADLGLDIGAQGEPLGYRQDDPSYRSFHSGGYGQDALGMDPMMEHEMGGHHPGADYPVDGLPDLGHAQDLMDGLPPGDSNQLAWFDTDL

[2] = target: T2, beta-catenin/TCF4 engagement (Homo sapiens, UniProt P35222); assay: Nano-BRET target engagement assay (B-cat-Halo & TCF4-Luc in HEK293 cells); type: cell-based; settings: read-out: NanoBRET Abs IC50
T2 construct: expressed in transfected cells; host or cells: HEK293
T2 sequence (P35222 1-781): T1 sequence (P35222 1-781)

Solubility in PBS = type: physicochemical; settings: Solubility (uM)
Method in brief: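 Solubility is derived from HPLC peak areas: the ratio of the PBS supernatant peak to a 50 μM DMSO peptide peak, times 50 uM.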

Row | chromatographic logD (CHI Log D procedure) | IC50 [1] | IC50 [2] | Solubility (Solubility in PBS) | solubility at 15 min (Solubility in PBS) | SMILES
1 | 1.45 | 22 nM | > 20000 nM |  | 30 µM (≈ 71.1 µg/mL) | COCCOCCOCCOCCOCCOCCOCCOCCC(=O)NCCCC[C@@H]1NC(=O)[C@H](C)NC(=O)[C@H](CC(=O)O)NC(=O)[C@H](CC(=O)O)NC(=O)C2(CCCC=CCCCOC(=O)N3CC[C@@](C(=O)N[C@@H](Cc4ccsc4)C(=O)N[C@@H](Cc4csc5ccccc45)C(=O)N[C@@H](CCC(N)=O)C(N)=O)(C3)NC(=O)[C@H](CC(N)=O)NC(=O)[C@H](Cc3ccccc3)NC1=O)CCCC=CC[C@]1(CCCN1C(C)=O)C(=O)N[C@@H](CC(=O)O)C(=O)N[C@@H](CC(C)(C)C)C(=O)N2 (stereo partly drawn) [I-896, Ac-PL3-Asp-Npg-B5-Asp-Asp-Ala-[mPEG8]Lys-Phe-Asn-PyrS2-3Thi-BztA-Gln-NH2]
2 | 1.65 | 16 nM | > 20000 nM | 43 µM (≈ 88 µg/mL) |  | CCCC(=O)NCCCC[C@@H]1NC(=O)[C@H](C)NC(=O)[C@H](CC(=O)O)NC(=O)[C@H](CC(=O)O)NC(=O)C2(CCCC=CCCCOC(=O)N3CC[C@@](C(=O)N[C@@H](Cc4ccsc4)C(=O)N[C@@H](Cc4csc5ccccc45)C(=O)N[C@@H](CCC(N)=O)C(N)=O)(C3)NC(=O)[C@H](CC(N)=O)NC(=O)[C@H](Cc3ccccc3)NC1=O)CCCC=CC[C@]1(CCCN1C(C)=O)C(=O)N[C@@H](CC(=O)O)C(=O)N[C@@H](CC(C)(C)C)C(=O)N2 (stereo partly drawn) [I-897, Ac-PL3-Asp-Npg-B5-Asp-Asp-Ala-[Bua]Lys-Phe-Asn-PyrS2-3Thi-BztA-Gln-NH2]
3 | 2.2 | 16 nM | > 20000 nM | 42 µM (≈ 88.3 µg/mL) |  | CCCCCCCC(=O)NCCCC[C@@H]1NC(=O)[C@H](C)NC(=O)[C@H](CC(=O)O)NC(=O)[C@H](CC(=O)O)NC(=O)C2(CCCC=CCCCOC(=O)N3CC[C@@](C(=O)N[C@@H](Cc4ccsc4)C(=O)N[C@@H](Cc4csc5ccccc45)C(=O)N[C@@H](CCC(N)=O)C(N)=O)(C3)NC(=O)[C@H](CC(N)=O)NC(=O)[C@H](Cc3ccccc3)NC1=O)CCCC=CC[C@]1(CCCN1C(C)=O)C(=O)N[C@@H](CC(=O)O)C(=O)N[C@@H](CC(C)(C)C)C(=O)N2 (stereo partly drawn) [I-898, Ac-PL3-Asp-Npg-B5-Asp-Asp-Ala-[Oct]Lys-Phe-Asn-PyrS2-3Thi-BztA-Gln-NH2]
4 | 2.26 | 28 nM | > 20000 nM | 40 µM (≈ 85.5 µg/mL) |  | CC(=O)N1CCC[C@]12CC=CCCCC1(CCCC=CCCCOC(=O)N3CC[C@@](C(=O)N[C@@H](Cc4ccsc4)C(=O)N[C@@H](Cc4csc5ccccc45)C(=O)N[C@@H](CCC(N)=O)C(N)=O)(C3)NC(=O)[C@H](CC(N)=O)NC(=O)[C@H](Cc3ccccc3)NC(=O)[C@H](CCCCNC(=O)C34CC5CC(CC(C5)C3)C4)NC(=O)[C@H](C)NC(=O)[C@H](CC(=O)O)NC(=O)[C@H](CC(=O)O)NC1=O)NC(=O)[C@H](CC(C)(C)C)NC(=O)[C@H](CC(=O)O)NC2=O (stereo partly drawn) [I-899, Ac-PL3-Asp-Npg-B5-Asp-Asp-Ala-[AdamantC]Lys-Phe-Asn-PyrS2-3Thi-BztA-Gln-NH2]
5 | 2.74 | 33 nM | > 20000 nM | 41 µM (≈ 89.4 µg/mL) |  | CC(=O)N1CCC[C@]12CC=CCCCC1(CCCC=CCCCOC(=O)N3CC[C@@](C(=O)N[C@@H](Cc4ccsc4)C(=O)N[C@@H](Cc4csc5ccccc45)C(=O)N[C@@H](CCC(N)=O)C(N)=O)(C3)NC(=O)[C@H](CC(N)=O)NC(=O)[C@H](Cc3ccccc3)NC(=O)[C@H](CCCCNC(=O)C34CC5(C)CC(C)(CC(C)(C5)C3)C4)NC(=O)[C@H](C)NC(=O)[C@H](CC(=O)O)NC(=O)[C@H](CC(=O)O)NC1=O)NC(=O)[C@H](CC(C)(C)C)NC(=O)[C@H](CC(=O)O)NC2=O (stereo partly drawn) [I-900, Ac-PL3-Asp-Npg-B5-Asp-Asp-Ala-[Me3AdamantC]Lys-Phe-Asn-PyrS2-3Thi-BztA-Gln-NH2]
6 | 2.38 | 33 nM | 7800 nM | 43 µM (≈ 95.8 µg/mL) |  | CC(=O)N1CCC[C@]12CC=CCCCC1(CCCC=CCCCOC(=O)N3CC[C@@](C(=O)N[C@@H](Cc4ccsc4)C(=O)N[C@@H](Cc4csc5ccccc45)C(=O)N[C@@H](CCC(N)=O)C(=O)N[C@@H](CCCCNC(=O)CCc4cccc5ccccc45)C(N)=O)(C3)NC(=O)[C@H](CC(N)=O)NC(=O)[C@H](Cc3ccccc3)NC(=O)[C@H](C)NC(=O)[C@H](C)NC(=O)[C@H](CC(=O)O)NC(=O)[C@H](CC(=O)O)NC1=O)NC(=O)[C@H](CC(C)(C)C)NC(=O)[C@H](CC(=O)O)NC2=O (stereo partly drawn) [I-903, Ac-PL3-Asp-Npg-B5-Asp-Asp-Ala-Ala-Phe-Asn-PyrS2-3Thi-BztA-Gln-[1NapPr]Lys-NH2]

More lines, now with the values behind:

Row | SMILES | chromatographic logD (CHI Log D procedure) | IC50 [1] | IC50 [2] | Solubility (Solubility in PBS) | solubility at 15 min (Solubility in PBS)
7 | CC(=O)N1CCC[C@]12CC=CCCCC1(CCCC=CCCCOC(=O)N3CC[C@@](C(=O)N[C@@H](Cc4ccsc4)C(=O)N[C@@H](Cc4csc5ccccc45)C(=O)N[C@@H](CCC(N)=O)C(N)=O)(C3)NC(=O)[C@H](CC(N)=O)NC(=O)[C@H](Cc3ccccc3)NC(=O)[C@H](CCCCNC(=O)CN3CCOCC3)NC(=O)[C@H](C)NC(=O)[C@H](CC(=O)O)NC(=O)[C@H](CC(=O)O)NC1=O)NC(=O)[C@H](CC(C)(C)C)NC(=O)[C@H](CC(=O)O)NC2=O (stereo partly drawn) [I-886, Ac-PL3-Asp-Npg-B5-Asp-Asp-Ala-[MorphAc]Lys-Phe-Asn-PyrS2-3Thi-BztA-Gln-NH2] | 1.51 | 22 nM | > 20000 nM | 43 µM (≈ 90.4 µg/mL) | 
8 | CC(=O)N1CCC[C@]12CC=CCCCC1(CCCC=CCCCOC(=O)N3CC[C@@](C(=O)N[C@@H](Cc4ccsc4)C(=O)N[C@@H](Cc4csc5ccccc45)C(=O)N[C@@H](CCC(N)=O)C(N)=O)(C3)NC(=O)[C@H](CC(N)=O)NC(=O)[C@H](Cc3ccccc3)NC(=O)[C@H](CCCCNC(=O)CN3CCN(C)CC3)NC(=O)[C@H](C)NC(=O)[C@H](CC(=O)O)NC(=O)[C@H](CC(=O)O)NC1=O)NC(=O)[C@H](CC(C)(C)C)NC(=O)[C@H](CC(=O)O)NC2=O (stereo partly drawn) [I-887, Ac-PL3-Asp-Npg-B5-Asp-Asp-Ala-[MePipAc]Lys-Phe-Asn-PyrS2-3Thi-BztA-Gln-NH2] | 1.37 | 14 nM | > 20000 nM | 46 µM (≈ 97.3 µg/mL) | 
9 | CC(=O)N1CCC[C@]12CC=CCCCC1(CCCC=CCCCOC(=O)N3CC[C@@](C(=O)N[C@@H](Cc4ccsc4)C(=O)N[C@@H](Cc4csc5ccccc45)C(=O)N[C@@H](CCC(N)=O)C(N)=O)(C3)NC(=O)[C@H](CC(N)=O)NC(=O)[C@H](Cc3ccccc3)NC(=O)[C@H](CCCCNC(=O)c3ccc(CN4CCN(C)CC4)cc3)NC(=O)[C@H](C)NC(=O)[C@H](CC(=O)O)NC(=O)[C@H](CC(=O)O)NC1=O)NC(=O)[C@H](CC(C)(C)C)NC(=O)[C@H](CC(=O)O)NC2=O (stereo partly drawn) [I-889, Ac-PL3-Asp-Npg-B5-Asp-Asp-Ala-[4MePipBz]Lys-Phe-Asn-PyrS2-3Thi-BztA-Gln-NH2] | 1.49 | 16 nM | > 20000 nM |  | 41 µM (≈ 89.9 µg/mL)
10 | CC(=O)N1CCC[C@]12CC=CCCCC1(CCCC=CCCCOC(=O)N3CC[C@@](C(=O)N[C@@H](Cc4ccsc4)C(=O)N[C@@H](Cc4csc5ccccc45)C(=O)N[C@@H](CCC(N)=O)C(N)=O)(C3)NC(=O)[C@H](CC(N)=O)NC(=O)[C@H](Cc3ccccc3)NC(=O)[C@H](CCCCNC(=O)c3ccc(CN4CCOCC4)cc3)NC(=O)[C@H](C)NC(=O)[C@H](CC(=O)O)NC(=O)[C@H](CC(=O)O)NC1=O)NC(=O)[C@H](CC(C)(C)C)NC(=O)[C@H](CC(=O)O)NC2=O (stereo partly drawn) [I-890, Ac-PL3-Asp-Npg-B5-Asp-Asp-Ala-[MeMorphBz]Lys-Phe-Asn-PyrS2-3Thi-BztA-Gln-NH2] | 1.67 | 16 nM | > 20000 nM | 40 µM (≈ 87.1 µg/mL) | 
11 | COCCOCCOCCOCCOCCOCCC(=O)NCCCC[C@@H]1NC(=O)[C@H](C)NC(=O)[C@H](CC(=O)O)NC(=O)[C@H](CC(=O)O)NC(=O)C2(CCCC=CCCCOC(=O)N3CC[C@@](C(=O)N[C@@H](Cc4ccsc4)C(=O)N[C@@H](Cc4csc5ccccc45)C(=O)N[C@@H](CCC(N)=O)C(N)=O)(C3)NC(=O)[C@H](CC(N)=O)NC(=O)[C@H](Cc3ccccc3)NC1=O)CCCC=CC[C@]1(CCCN1C(C)=O)C(=O)N[C@@H](CC(=O)O)C(=O)N[C@@H](CC(C)(C)C)C(=O)N2 (stereo partly drawn) [I-895, Ac-PL3-Asp-Npg-B5-Asp-Asp-Ala-[mPEG6]Lys-Phe-Asn-PyrS2-3Thi-BztA-Gln-NH2] | 1.45 | 14 nM | > 20000 nM | 31 µM (≈ 70.7 µg/mL) | 
